IC50 data for 35 compounds are collected here from patent publication US10442803B2, “Tricyclic heterocycles as bet protein inhibitors” (Incyte Corporation, priority 2013, dated 2019).

The test system of the experiment is KMS.12.BM cells. Put plainly: KMS.12.BM cell viability assay. The note with it: 72 h; KMS.12.BM human myeloma cells, 3 days, Cell Titer-GLO ATP quantitation; read-out: KMS cellular IC50. It is filed as cell-based. An outline of the steps:
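Human myeloma KMS.12.BM cells, 5000 per well in RPMI/10% FBS, exposed 3 days to compound concentration range. Viability from ATP-based Cell Titer-GLO luminescence; IC50 derived.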
On the technique in general: In ATP-based viability assays light output follows the ATP content of the culture.
For `Cc1cc2c(cc(NC(N)=O)c3nnc(C)n32)n1Cc1cccc(F)c1` [Example 235, 1-(6-(3-Fluorobenzyl)-1,7-dimethyl-6H-pyrrolo[2,3-e][1,2,4]triazolo[4,3-a]pyridin-4-yl)urea], the IC50 (in general, the midpoint of a concentration-inhibition curve) was at most 1000 nM.

Take `Cc1cc2c(cc(NC(N)=O)c3nnc(C)n32)n1Cc1ccc(F)cc1F` [Example 236, 1-(6-(2,4-Difluorobenzyl)-1,7-dimethyl-6H-pyrrolo[2,3-e][1,2,4]triazolo[4,3-a]pyridin-4-yl)urea]: the IC50 is at most 1000 nM.

In the case of `Cc1cc2c(cc(NC(N)=O)c3nnc(C)n32)n1Cc1cccc(F)c1F` [Example 237, 1-(6-(2,3-Difluorobenzyl)-1,7-dimethyl-6H-pyrrolo[2,3-e][1,2,4]triazolo[4,3-a]pyridin-4-yl)urea], the IC50 is at most 1000 nM.

As to `Cc1cc2c(cc(NC(N)=O)c3nnc(C)n32)n1Cc1ccccc1F` [Example 238, 1-(6-(2-Fluorobenzyl)-1,7-dimethyl-6H-pyrrolo[2,3-e][1,2,4]triazolo[4,3-a]pyridin-4-yl)urea], the IC50 is 1000 to 10000 nM.

With `Cc1cc2c(cc(NC(N)=O)c3nnc(C)n32)n1Cc1ccc(F)cc1` [Example 239, 1-(6-(4-Fluorobenzyl)-1,7-dimethyl-6H-pyrrolo[2,3-e][1,2,4]triazolo[4,3-a]pyridin-4-yl)urea], the half-maximal inhibitory concentration (IC50) is at most 1000 nM.

`Cc1cc2c(cc(Nc3ccccn3)c3nnc(C)n32)n1Cc1ccccc1` [Example 240, 6-benzyl-1,7-Dimethyl-N-(pyridin-2-yl)-6H-pyrrolo[2,3-e][1,2,4]triazolo[4,3-a]pyridin-4-amine]: the concentration for half-maximal inhibition (IC50) is 1000 to 10000 nM.

For the compound `Cc1cc2c(cc(NCC3CCC3)c3nnc(C)n32)n1Cc1ccccc1` [Example 241, 6-Benzyl-N-(cyclobutylmethyl)-1,7-dimethyl-6H-pyrrolo[2,3-e][1,2,4]triazolo[4,3-a]pyridin-4-amine], the half-maximal inhibitory concentration (IC50) is 1000 to 10000 nM.

Consider `Cc1cc2c(cc(NCC3CN(C(=O)OC(C)(C)C)C3)c3nnc(C)n32)n1Cc1ccccc1` [Example 243, tert-Butyl 3-((6-benzyl-1,7-dimethyl-6H-pyrrolo[2,3-e][1,2,4]triazolo[4,3-a]pyridin-4-ylamino)methyl)azetidine-1-carboxylate], for which the IC50 lay in the range of 1000 to 10000 nM.

In the case of `Cc1cc2c(cc(NC3CN(C(=O)OC(C)(C)C)C3)c3nnc(C)n32)n1Cc1ccccc1` [Example 244, tert-Butyl 3-(6-benzyl-1,7-dimethyl-6H-pyrrolo[2,3-e][1,2,4]triazolo[4,3-a]pyridin-4-ylamino)azetidine-1-carboxylate], the IC50 was at most 1000 nM.

`Cc1cc2c(cc(NCCCN(C)C)c3nnc(C)n32)n1Cc1ccccc1` [Example 245, N1-(6-Benzyl-1,7-dimethyl-6H-pyrrolo[2,3-e][1,2,4]triazolo[4,3-a]pyridin-4-yl)-N3,N3-dimethylpropane-1,3-diamine]: the IC50 is at most 1000 nM.

Turning to `Cc1cc2c(cc(NCCN(C)C)c3nnc(C)n32)n1Cc1ccccc1` [Example 246, N1-(6-Benzyl-1,7-dimethyl-6H-pyrrolo[2,3-e][1,2,4]triazolo[4,3-a]pyridin-4-yl)-N2,N2-dimethylethane-1,2-diamine], the IC50 was at most 1000 nM.

Consider `Cc1cc2c(cc(N[C@H]3C[C@H](O)C3)c3nnc(C)n32)n1Cc1ccccc1` [Example 247, trans-3-(6-Benzyl-1,7-dimethyl-6H-pyrrolo[2,3-e][1,2,4]triazolo[4,3-a]pyridin-4-ylamino)cyclobutanol], for which the IC50 was at most 1000 nM.

With `Cc1cc2c(cc(NC(=O)OC(C)(C)C)c3nnc(C)n32)n1Cc1ccccc1` [Example 248, tert-Butyl 6-benzyl-1,7-dimethyl-6H-pyrrolo[2,3-e][1,2,4]triazolo[4,3-a]pyridin-4-ylcarbamate], the IC50 is at most 1000 nM.

Regarding `CCNC(=O)Nc1cc2c(cc(C)n2Cc2ccccc2)n2c(C)nnc12` [Example 249, 1-(6-Benzyl-1,7-dimethyl-6H-pyrrolo[2,3-e][1,2,4]triazolo[4,3-a]pyridin-4-yl)-3-ethylurea], the IC50 was at most 1000 nM.

Consider `Cc1cc2c(cc(NC(=O)NC(C)C)c3nnc(C)n32)n1Cc1ccccc1` [Example 250, 1-(6-Benzyl-1,7-dimethyl-6H-pyrrolo[2,3-e][1,2,4]triazolo[4,3-a]pyridin-4-yl)-3-isopropylurea], for which the concentration for half-maximal inhibition (IC50) is at most 1000 nM.

On to `Cc1cc2c(cc(NC(=O)N(C)C)c3nnc(C)n32)n1Cc1ccccc1` [Example 251, 3-(6-Benzyl-1,7-dimethyl-6H-pyrrolo[2,3-e][1,2,4]triazolo[4,3-a]pyridin-4-yl)-1,1-dimethylurea], for which the IC50 is at most 1000 nM.

For the compound `Cc1cc2c(cc(NC(N)=O)c3nnc(C)n32)n1Cc1ccccc1` [Example 252, 1-(6-Benzyl-1,7-dimethyl-6H-pyrrolo[2,3-e][1,2,4]triazolo[4,3-a]pyridin-4-yl)urea], the concentration for half-maximal inhibition (IC50) was at most 1000 nM.

As for `Cc1cc2c(cc(Nc3ncc[nH]3)c3nnc(C)n32)n1Cc1ccccc1` [Example 253, 6-Benzyl-N-(1H-imidazol-2-yl)-1,7-dimethyl-6H-pyrrolo[2,3-e][1,2,4]triazolo[4,3-a]pyridin-4-amine], the IC50 is at most 1000 nM.

`Cc1cc2c(cc(NC(N)=O)c3nnc(C)n32)n1Cc1c(F)cccc1F` [Example 254, 1-(6-(2,6-Difluorobenzyl)-1,7-dimethyl-6H-pyrrolo[2,3-e][1,2,4]triazolo[4,3-a]pyridin-4-yl)urea]: the IC50 is at most 1000 nM.

Take `Cc1cc2c(cc(Nc3ccncc3)c3nnc(C)n32)n1Cc1ccccc1` [Example 255, 6-Benzyl-1,7-dimethyl-N-(pyridin-4-yl)-6H-pyrrolo[2,3-e][1,2,4]triazolo[4,3-a]pyridin-4-amine]: the IC50 is at most 1000 nM.

With `Cc1cc2c(cc(Nc3cccnc3)c3nnc(C)n32)n1Cc1ccccc1` [Example 256, 6-Benzyl-1,7-dimethyl-N-(pyridin-3-yl)-6H-pyrrolo[2,3-e][1,2,4]triazolo[4,3-a]pyridin-4-amine], the half-maximal inhibitory concentration (IC50) is at most 1000 nM.

As to `Cc1cc2c(cc(NCCCN)c3nnc(C)n32)n1Cc1ccccc1` [Example 257, N1-(6-Benzyl-1,7-dimethyl-6H-pyrrolo[2,3-e][1,2,4]triazolo[4,3-a]pyridin-4-yl)propane-1,3-diamine], the 50% inhibitory concentration (IC50) was at most 1000 nM.

For the compound `Cc1cc2c(cc(NCCN)c3nnc(C)n32)n1Cc1ccccc1` [Example 258, N1-(6-benzyl-1,7-dimethyl-6H-pyrrolo[2,3-e][1,2,4]triazolo[4,3-a]pyridin-4-yl)ethane-1,2-diamine], the IC50 is at most 1000 nM.

For `CCNc1cc2c(cc(C)n2Cc2ccccc2)n2c(C)nnc12` [Example 259, 6-Benzyl-N-ethyl-1,7-dimethyl-6H-pyrrolo[2,3-e][1,2,4]triazolo[4,3-a]pyridin-4-amine], the half-maximal inhibitory concentration (IC50) is at most 1000 nM.

Turning to `Cc1cc2c(cc(Nc3ccccc3)c3nnc(C)n32)n1Cc1ccccc1` [Example 260, 6-Benzyl-1,7-dimethyl-N-phenyl-6H-pyrrolo[2,3-e][1,2,4]triazolo[4,3-a]pyridin-4-amine], the IC50 was 1000 to 10000 nM.

With `CNc1cc2c(cc(C)n2Cc2ccccc2)n2c(C)nnc12` [Example 261, 6-Benzyl-N,1,7-trimethyl-6H-pyrrolo[2,3-e][1,2,4]triazolo[4,3-a]pyridin-4-amine], the half-inhibitory concentration (IC50) is at most 1000 nM.

With `CCCNc1cc2c(cc(C)n2Cc2ccccc2)n2c(C)nnc12` [Example 262, 6-Benzyl-N-propyl-1,7-dimethyl-6H-pyrrolo[2,3-e][1,2,4]triazolo[4,3-a]pyridin-4-amine], the 50% inhibitory concentration (IC50) lay within 1000 to 10000 nM.

Take `Cc1cc2c(cc(NC(C)C)c3nnc(C)n32)n1Cc1ccccc1` [Example 263, 6-Benzyl-N-isopropyl-1,7-dimethyl-6H-pyrrolo[2,3-e][1,2,4]triazolo[4,3-a]pyridin-4-amine]: the IC50 was in the range of 1000 to 10000 nM.

Consider `CC(=O)Nc1cc2c(cc(C)n2Cc2ccccc2)n2c(C)nnc12` [Example 266, N-(6-Benzyl-1,7-dimethyl-6H-pyrrolo[2,3-e][1,2,4]triazolo[4,3-a]pyridin-4-yl)acetamide], for which the half-maximal inhibitory concentration (IC50) is at most 1000 nM.

With `CCCC(=O)Nc1cc2c(cc(C)n2Cc2ccccc2)n2c(C)nnc12` [Example 267, N-(6-Benzyl-1,7-dimethyl-6H-pyrrolo[2,3-e][1,2,4]triazolo[4,3-a]pyridin-4-yl)butyramide], the IC50 was at most 1000 nM.

For `CCC(=O)Nc1cc2c(cc(C)n2Cc2ccccc2)n2c(C)nnc12` [Example 268, N-(6-Benzyl-1,7-dimethyl-6H-pyrrolo[2,3-e][1,2,4]triazolo[4,3-a]pyridin-4-yl)propionamide], the IC50 is at most 1000 nM.

Consider `Cc1cc2c(cc(NC(=O)C3CC3)c3nnc(C)n32)n1Cc1ccccc1` [Example 269, N-(6-Benzyl-1,7-dimethyl-6H-pyrrolo[2,3-e][1,2,4]triazolo[4,3-a]pyridin-4-yl)cyclopropanecarboxamide], for which the IC50 is at most 1000 nM.

As for `Cc1cc2c(cc(NC(=O)C(C)C)c3nnc(C)n32)n1Cc1ccccc1` [Example 270, N-(6-Benzyl-1,7-dimethyl-6H-pyrrolo[2,3-e][1,2,4]triazolo[4,3-a]pyridin-4-yl)isobutyramide], the IC50 was at most 1000 nM.

Regarding `Cc1cc2c(cc(NS(C)(=O)=O)c3nnc(C)n32)n1Cc1ccccc1` [Example 271, N-(6-Benzyl-1,7-dimethyl-6H-pyrrolo[2,3-e][1,2,4]triazolo[4,3-a]pyridin-4-yl)methanesulfonamide], the concentration for half-maximal inhibition (IC50) was at most 1000 nM.

With `COC(=O)Nc1cc2c(cc(C)n2Cc2ccccc2)n2c(C)nnc12` [Example 272, Methyl 6-benzyl-1,7-dimethyl-6H-pyrrolo[2,3-e][1,2,4]triazolo[4,3-a]pyridin-4-ylcarbamate], the IC50 was at most 1000 nM.
